Measured values as given in PMC6659418 (Bioorganic & medicinal chemistry letters, 2017).
pIC50: −log10 of the molar value.

Key:
[1] = molecular target: T1, hM4 (Homo sapiens, UniProt P08173); experiment: calcium mobilization assay, hM4/Gqi5 CHO cells, ACh EC80; assay type: cell-based; conditions: for hM4 % ACh Min ±SEM: presence of ACh EC80
T1 sequence (P08173 1-479): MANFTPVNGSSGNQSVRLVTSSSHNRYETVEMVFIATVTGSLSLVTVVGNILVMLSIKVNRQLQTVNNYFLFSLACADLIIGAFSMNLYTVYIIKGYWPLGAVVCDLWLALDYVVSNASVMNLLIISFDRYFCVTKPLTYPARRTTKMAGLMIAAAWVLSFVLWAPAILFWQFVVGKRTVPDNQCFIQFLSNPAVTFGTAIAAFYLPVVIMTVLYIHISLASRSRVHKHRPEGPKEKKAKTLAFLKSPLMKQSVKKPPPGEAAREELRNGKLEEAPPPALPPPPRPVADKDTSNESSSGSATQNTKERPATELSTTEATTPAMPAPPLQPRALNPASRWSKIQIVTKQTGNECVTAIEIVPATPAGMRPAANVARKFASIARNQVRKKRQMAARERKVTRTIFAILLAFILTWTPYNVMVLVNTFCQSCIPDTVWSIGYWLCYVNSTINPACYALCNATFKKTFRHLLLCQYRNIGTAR

[2] = predicted hepatic clearance from microsomal intrinsic clearance, rat; assay type: in vitro ADME; conditions: based on microsomal CLint
[3] = predicted hepatic clearance from microsomal intrinsic clearance, human; assay type: in vitro ADME; conditions: based on microsomal CLint
[4] = metabolite identification in rat hepatic microsomes; assay type: in vitro ADME
[5] = metabolite identification in human hepatic microsomes; assay type: in vitro ADME
[6] = plasma protein binding; assay type: in vitro ADME
[7] = molecular target: T2, hM1 (Homo sapiens, UniProt P11229); experiment: calcium mobilization assay, hM1 CHO cells, ACh EC80; assay type: cell-based
T2 sequence (P11229 1-460): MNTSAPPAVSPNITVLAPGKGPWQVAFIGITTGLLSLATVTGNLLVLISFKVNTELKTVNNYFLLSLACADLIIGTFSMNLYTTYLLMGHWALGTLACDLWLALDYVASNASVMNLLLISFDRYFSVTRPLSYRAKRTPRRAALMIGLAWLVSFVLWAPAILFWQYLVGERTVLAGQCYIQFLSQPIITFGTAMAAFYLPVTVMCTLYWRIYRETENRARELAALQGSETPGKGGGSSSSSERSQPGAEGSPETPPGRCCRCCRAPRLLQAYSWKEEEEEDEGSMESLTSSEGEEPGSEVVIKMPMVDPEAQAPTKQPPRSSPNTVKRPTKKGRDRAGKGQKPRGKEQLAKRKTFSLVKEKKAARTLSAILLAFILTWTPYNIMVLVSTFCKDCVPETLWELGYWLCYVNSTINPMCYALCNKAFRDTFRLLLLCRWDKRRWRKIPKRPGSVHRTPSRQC

[8] = molecular target: T3, hM2 (Homo sapiens, UniProt P08172); experiment: calcium mobilization assay, hM2/Gqi5 CHO cells, ACh EC80; assay type: cell-based
T3 sequence (P08172 1-466): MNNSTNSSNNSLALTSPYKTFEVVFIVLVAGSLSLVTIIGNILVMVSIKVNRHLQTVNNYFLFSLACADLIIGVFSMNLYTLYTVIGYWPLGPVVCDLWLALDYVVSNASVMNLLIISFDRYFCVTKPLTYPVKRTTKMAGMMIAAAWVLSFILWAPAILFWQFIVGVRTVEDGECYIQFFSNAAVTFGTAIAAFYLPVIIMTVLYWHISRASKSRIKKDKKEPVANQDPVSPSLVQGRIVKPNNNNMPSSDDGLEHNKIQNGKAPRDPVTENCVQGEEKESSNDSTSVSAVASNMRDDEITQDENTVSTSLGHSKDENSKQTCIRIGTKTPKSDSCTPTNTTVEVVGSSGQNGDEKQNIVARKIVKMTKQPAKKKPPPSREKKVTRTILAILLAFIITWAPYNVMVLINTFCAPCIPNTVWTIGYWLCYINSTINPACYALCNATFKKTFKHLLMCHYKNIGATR

[9] = molecular target: hM3 (Homo sapiens, UniProt P20309); experiment: calcium mobilization assay, hM3 CHO cells, ACh EC80; assay type: cell-based
[10] = molecular target: T4, hM5 (Homo sapiens, UniProt P08912); experiment: calcium mobilization assay, hM5 CHO cells, ACh EC80; assay type: cell-based
T4 sequence (P08912 1-532): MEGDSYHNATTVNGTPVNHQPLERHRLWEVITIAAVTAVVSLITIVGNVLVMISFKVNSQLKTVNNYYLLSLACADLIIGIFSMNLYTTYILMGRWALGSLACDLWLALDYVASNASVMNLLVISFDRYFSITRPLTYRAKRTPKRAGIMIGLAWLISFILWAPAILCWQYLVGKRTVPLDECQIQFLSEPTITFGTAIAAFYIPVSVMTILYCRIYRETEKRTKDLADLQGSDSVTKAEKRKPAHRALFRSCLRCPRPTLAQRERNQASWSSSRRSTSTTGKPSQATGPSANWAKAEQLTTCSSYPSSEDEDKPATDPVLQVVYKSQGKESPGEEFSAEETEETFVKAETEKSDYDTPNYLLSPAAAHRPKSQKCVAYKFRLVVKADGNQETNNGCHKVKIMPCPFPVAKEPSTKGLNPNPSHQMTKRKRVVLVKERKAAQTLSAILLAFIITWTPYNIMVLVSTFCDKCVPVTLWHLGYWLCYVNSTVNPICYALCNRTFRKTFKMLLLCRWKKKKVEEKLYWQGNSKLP

[11] = molecular target: T5, rM4 (Rattus norvegicus, UniProt P08485); experiment: activity at rat mAChRs, rM4; assay type: cell-based
T5 sequence (P08485 1-478): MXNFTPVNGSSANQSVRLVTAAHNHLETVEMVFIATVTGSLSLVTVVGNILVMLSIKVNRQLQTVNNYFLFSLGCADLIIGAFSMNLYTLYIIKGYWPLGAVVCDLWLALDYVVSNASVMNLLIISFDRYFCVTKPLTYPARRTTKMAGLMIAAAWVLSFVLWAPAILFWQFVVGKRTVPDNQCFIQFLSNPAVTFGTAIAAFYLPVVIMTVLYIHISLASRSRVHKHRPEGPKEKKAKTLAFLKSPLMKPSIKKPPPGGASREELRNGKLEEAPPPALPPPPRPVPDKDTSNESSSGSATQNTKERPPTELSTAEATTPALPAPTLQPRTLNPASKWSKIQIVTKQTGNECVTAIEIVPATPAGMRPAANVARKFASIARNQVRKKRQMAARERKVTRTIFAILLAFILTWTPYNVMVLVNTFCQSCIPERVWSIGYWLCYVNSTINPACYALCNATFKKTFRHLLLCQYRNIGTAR

Chain of hM3 (P20309 whole entry): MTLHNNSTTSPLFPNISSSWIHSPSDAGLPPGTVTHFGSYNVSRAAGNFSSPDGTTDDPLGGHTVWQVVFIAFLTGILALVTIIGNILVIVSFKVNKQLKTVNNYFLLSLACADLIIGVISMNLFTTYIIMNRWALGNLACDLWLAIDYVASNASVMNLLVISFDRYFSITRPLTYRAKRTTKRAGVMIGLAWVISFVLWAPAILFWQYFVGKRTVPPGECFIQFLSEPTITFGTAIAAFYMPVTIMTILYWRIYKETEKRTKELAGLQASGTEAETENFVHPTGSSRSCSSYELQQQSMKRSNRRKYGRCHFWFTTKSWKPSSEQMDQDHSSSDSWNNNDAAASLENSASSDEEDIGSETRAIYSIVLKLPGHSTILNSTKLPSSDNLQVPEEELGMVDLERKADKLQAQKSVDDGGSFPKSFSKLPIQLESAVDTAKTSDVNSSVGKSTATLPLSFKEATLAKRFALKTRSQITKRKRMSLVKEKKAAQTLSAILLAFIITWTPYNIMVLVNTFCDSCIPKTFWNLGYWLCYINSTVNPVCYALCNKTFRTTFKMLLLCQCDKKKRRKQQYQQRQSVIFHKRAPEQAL

C[C@H]1CCCCN1c1ccc(N2CCN(S(=O)(=O)c3ccccc3Cl)CC2)nn1 [Compound 6a]
M4-preferring functional selectivity over other mAChRs ([1]; hM4 versus hM1, hM2, hM3, hM5): 2.7- to 16 fold
predicted hepatic clearance (CLhep), rat [2]: > 60 mL/min/kg
predicted hepatic clearance (CLhep), human [3]: > 20 mL/min/kg
parent remaining, rat microsomes [4]: very little parent remained
major peak (UV and extracted ion chromatograms), rat microsomes ([4]; oxidative metabolism of the piperidine moiety): metabolite F
NADPH-independent metabolism, rat microsomes ([4]; presence and absence of NADPH): no NADPH-independent metabolism
number of NADPH-dependent metabolites formed, human microsomes [5]: 8
parent remaining, human microsomes [5]: parent remained the major species
NADPH-independent metabolism, human microsomes ([5]; presence and absence of NADPH): no NADPH-independent metabolism
plasma protein binding [6]: high plasma protein binding

C[C@H]1CCCCN1c1ccc(N2CCN(S(=O)(=O)c3ccccc3)CC2)nn1 [Compound 9c]
hM4 activity [1]: weak

COc1ccccc1S(=O)(=O)N1CCN(c2ccc(N3CCCC[C@@H]3C)nn2)CC1 [Compound 9d]
hM4 activity [1]: weak

C[C@H]1CCCCN1c1ccc(N2CCN(S(=O)(=O)c3ccccc3C(F)(F)F)CC2)nn1 [Compound 9e]
hM4 activity [1]: essentially equipotent to 6a

C[C@H]1CCCCN1c1ccc(N2CCN(S(=O)(=O)c3ccc4c(c3)OCO4)CC2)nn1 [Compound 9i]
fold more potent at hM4 than 3,4-dimethoxy analog 9j ([1]; 9i versus 9j): 10 fold

C[C@H]1COCCN1c1ccc(N2CCN(S(=O)(=O)c3ccccc3Cl)CC2)nn1 [Compound 14a]
hM4 % ACh Min ±SEM [1]: 56 % ACh Min

C[C@H]1COCCN1c1ccc(N2CCN(S(=O)(=O)c3ccc4c(c3)OCO4)CC2)nn1 [Compound 14b]
hM4 % ACh Min ±SEM [1]: 63 % ACh Min

Cc1noc(C)c1S(=O)(=O)N1CCN(c2ccc(N3CCOC[C@@H]3C)nn2)CC1 [Compound 14c]
hM4 % ACh Min ±SEM [1]: 66 % ACh Min

O=S(=O)(c1ccccc1Cl)N1CCN(c2ccc(N3CCCCC3)nn2)CC1 [Compound 14g]
fold loss in hM4 inhibitory activity relative to 6a [1]: 5- to 6 fold

Cc1noc(C)c1S(=O)(=O)N1CCN(c2ccc(N3CCCC(C)(C)C3)nn2)CC1 [Compound 14n, 4-[4-[6-(3,3-dimethyl-1-piperidyl)pyridazin-3-yl]piperazin-1-yl]sulfonyl-3,5-dimethyl-isoxazole]
mode of antagonism at human M1 [7]: potent full antagonist
mode of antagonism at human M2 [8]: potent full antagonist
mode of antagonism at human M3 [9]: weak, partial antagonism
mode of antagonism at human M5 [10]: weak, partial antagonism
rM4 % ACh Min [11]: 32±1 % ACh Min
pIC50 ([11]; rM4 pIC50): 6.43
predicted hepatic clearance (CLhep), rat [2]: 66.6 mL/min/kg
predicted hepatic clearance (CLhep), human [3]: 20 mL/min/kg

O=C1CCCCN1c1ccc(N2CCN(S(=O)(=O)c3ccccc3Cl)CC2)nn1 [Compound 14o]
hM4 % ACh Min ±SEM [1]: 51 % ACh Min
